According to US8313763B2, “Sustained delivery formulations of rapamycin compounds” (Tolmar Therapeutics, Inc., priority 2004, dated 2012):

Columns and labels:
[1] = test system: choroidal neovascularization (CNV); assay: Laser-induced CNV model, fluorescein angiography evaluation of leaky CNV; assay type: in vivo, Long Evans rats; settings: for incidence of developing leaky CNV 2 weeks after laser photocoagulation: vehicle 83%
Method: (§1) Thermal laser infrared light (diode laser 810 nm) at 200 mW for 0.075 seconds was delivered to the fundus of Long Evans rats using a slit lamp and a slit lamp adaptor. A total of 6 lesions with 75 μm diameter were placed in a circular pattern surrounding the optic disc on the posterior pole.
(§2) Intravitreal injection was performed immediately after laser photocoagulation. Briefly, three days prior to the injection, 0.3% Ciloxan ointment was applied to the eye once daily. At the time of injection, the eye pocket was irrigated and the conjunctiva swabbed with 1.0% Betadine solution. A 30-gauge needle connected to a 10-μL Hamilton syringe that contained 5 μL carboxymethylcellulose (CMC)-based Rapamycin suspension (0.5, 5, 10 or 40 mg/mL) or CMC vehicle alone was inserted 1 mm posterior to the corneoscleral limbus. The injection began when the bevel of the needle faced down and reached the vitreous about 1-2 mm in depth with the visual aid of a dissecting microscope. After injection, topical 0.3% Ciloxan ointment was applied to the eye once daily for 2 days.
FA was performed on the 14th day after intravitreal injection of Rapamycin. Briefly, a 25-gauge butterfly catheter was placed in the tail vein on an anesthetized animal and a Heparin-Lock solution (0.50 mL of 10,000 IU/mL Heparin Sodium with 0.95 mL 0.9% Saline) was used to fill the catheter line to maintain intravenous access. A dose of 10 mg/kg of Diofluor 10% (Fluorescein Sodium 10%) was delivered through the tail vein, followed by a flush of sterile saline to ensure full delivery of Diofluor 10%. An infusion pump (Becton-Dickinson) connected to a 60 cc syringe was used to infuse the Diofluor 10% at a constant rate of 6 mL/min (8.4-13.2 pounds per square inches) to allow for consistency in the synchronization of the fluorescein bolus injection and the angiogram acquisition. Photographs were taken with a fluorescence fundus camera at 1-10, 30, 60, 90, 180, and 300 sec after Diofluor 10% administration. The leakiness of CNV was assessed by two independent readers masked to the treatment.

[2] = test system: choroidal neovascularization (CNV); assay: Laser-induced CNV model, histological evaluation (CNV area, CD31-positive cell count); assay type: in vivo, Long Evans rats
Method: as §1
Intravitreal injection was performed immediately after laser photocoagulation. Briefly, three days prior to the injection, 0.3% Ciloxan ointment was applied to the eye once daily. At the time of injection, the eye pocket was irrigated and the conjunctiva swabbed with 1.0% Betadine solution. […] The injection began when the bevel of the needle faced down and reached the vitreous about 1-2 mm in depth with the visual aid of a dissecting microscope. After injection, topical 0.3% Ciloxan ointment was applied to the eye once daily for 2 days.
Eyes were enucleated and chorioretinal tissues that contained the CNV lesions prepared and fixed for about 18 hours in formic acid alcohol, and then replaced with 70% alcohol until the specimen was processed to wax by a standard method. Slides were stained with mouse anti rat CD31 (Chemicon, UK) by a standard immunohistochemistry protocol. This briefly consisted of removal of endogenous peroxidase enzymes with methanol and hydrogen peroxide, primary antibody as above, and the secondary donkey antibody anti mouse conjugated to biotin. Streptavidin ABC and Vector VIP substrate (Vector labs, Burlingame Calif.) were further added. Haematoxylin was used as a counterstain. Representative images before and after the center of each CNV lesion were taken using the 20× objective of an Olympus BX61 microscope fitted with a Spot RT colour camera (Diagnostic instruments, MI USA). Each image was applied to the standard image analysis macro in the software Image pro to identify the mean of lesion area for each CNV and the mean of CD31 positive cell counts (i.e. endothelial cells) within the CNV lesion area. All measurements were generated by two independent readers masked to the treatments. The data was analyzed in Excel and GraphPad Prism. The 80% correlation found between readers was deemed acceptable.

[3] = test system: Ser235/236 phosphorylation of S6 ribosomal protein (downstream target of mTOR); assay: Pharmacodynamic evaluation: S6 phosphorylation in chorioretinal tissues by western blot; assay type: in vivo, rat
Method: as §2
Upon euthanasia of the animal, the eyes were cut along the equator, separating the anterior and posterior segments. The vitreous was removed and the remaining back of eye (with intact retina, choroid and sclera) was placed in a labeled Nalgene Cryotube, immediately immersed in liquid nitrogen, and stored at −80° C. until ready to use. Upon lysis, tubes containing tissue were brought to room temperature to thaw. […] Protein concentration of each sample was determined using the Pierce BCA Protein Determination Kit (Pierce, CAT #: 23225) and BSA as a standard. Samples were analyzed by SDS-PAGE, followed by western blotting. […] Bound antibodies were detected using ECL or ECL plus Western Blotting Reagents. Densitometric evaluation was performed on blots scanned by Bio-Rad Multi-Analyst Software, and analyzed in MS Excel and GraphPad Prism.
Rapamycin inhibits mTOR activity, which then down-regulates Ser235/236 phosphorylation of the downstream target of mTOR, the S6 ribosomal protein. In order to evaluate the pharmacodynamic response of intravitreally administered rapamycin in the eye, the serine phosphorylation of S6 protein extracted from chorioretinal tissues was analyzed by western blot, and standardized by the total amount of S6 protein. […]

[4] = test system: Human umbilical endothelial cells; assay: VEGF-activated endothelial cell proliferation, [3H]-thymidine incorporation; assay type: cell-based; settings: [3H]-thymidine incorporation after 48 hours
Method: (§3) Targeted tissue concentrations were estimated from in vitro experiments assessing the inhibitory effects of rapamycin on endothelial cell proliferation and cytokine release from immune cells. Human umbilical endothelial cells were activated with Vascular Endothelial Growth Factor (VEGF) and incubated with various concentrations of rapamycin. Cell proliferation was evaluated by quantifying [3}H-thymidine incorporation after 48 hours. […] The IC50 for the release of TNFalpha from Lipopolysaccharide and IFNgamma treated THP-1 cells (monocytic cell line) was ˜1 nM and the IC50 for the release of IFNgamma from human peripheral blood T cells stimulated with phytohemagglutanin was ˜2 nM.

[5] = test system: THP-1 cells (monocytic cell line); assay: TNFalpha release from Lipopolysaccharide and IFNgamma treated THP-1 cells; assay type: cell-based; settings: Homo sapiens
Method: as §3

[6] = test system: human peripheral blood T cells; assay: IFNgamma release from phytohemagglutanin-stimulated T cells; assay type: cell-based; settings: T-cell, T cells stimulated with phytohemagglutanin
Method: as §3

SMILES | incidence of leaky CNV at the 14-day follow-up ([1]; intravitreal dose of 200 μg, positive control) [%] | inhibition of CNV area ([2]; TA, intravitreal 200 μg) | inhibition of endothelial cell count ([2]; TA, intravitreal 200 μg) [%] | response in the rat model of laser-induced CNV ([1]; 5 μg intravitreally injected) | incidence of developing leaky CNV 2 weeks after laser photocoagulation ([1]; single intravitreal injection of 0.5 μg rapamycin in CMC) [%] | incidence of developing leaky CNV 2 weeks after laser photocoagulation ([1]; single intravitreal injection of 5 μg rapamycin in CMC) [%] | incidence of developing leaky CNV 2 weeks after laser photocoagulation ([1]; single intravitreal injection of 50 μg rapamycin in CMC) [%] | reduction in CNV area compared to the vehicle group ([2]; 0.5 μg intravitreal) [%] | reduction in CNV area compared to the vehicle group ([2]; 5 μg intravitreal) [%] | reduction in CNV area compared to the vehicle group ([2]; 50 μg intravitreal) [%] | overall reduction in the number of endothelial cells within the CNV area compared to the vehicle group ([2]; 50 μg, 5 μg and 0.5 μg intravitreal, overall) | level of phosphorylated Ser235/236 on S6 ribosomal protein, standardized by total S6 ([3]; chorioretinal tissues, day 1, 3 and 7 post-dosing, vs untreated or vehicle-injected eyes, FIG. 10) | onset of inhibitory effect on S6 phosphorylation ([3]; intravitreal, rat) [h] | duration of inhibitory effect on S6 phosphorylation ([3]; post-dosing, longest follow-up timepoint) [days] | IC50 [4] [nM] | IC50 [5] [nM] | IC50 [6] [nM]
CC1(C)O[C@@H]2C[C@H]3[C@@H]4CCC5=CC(=O)C=C[C@]5(C)[C@@]4(F)[C@@H](O)C[C@]3(C)[C@]2(C(=O)CO)O1 [triamcinolone acetonide] | 10 | approximately 50% | ~60 | – | – | – | – | – | – | – | – | – | – | – | – | – | –
CO[C@H]1C[C@@H]2CC[C@@H](C)[C@@](O)(O2)C(=O)C(=O)N2CCCC[C@H]2C(=O)O[C@H]([C@H](C)C[C@@H]2CC[C@@H](O)[C@H](OC)C2)CC(=O)[C@H](C)/C=C(\C)[C@@H](O)[C@@H](OC)C(=O)[C@H](C)C[C@H](C)/C=C/C=C/C=C/1C [rapamycin, Rapamycin] | – | – | – | nearly a complete response | 65 | 5 | 2 | 15 | 55 | 50 | 50-60% | significantly reduced | ≤ 24 | 7 | 69 | ~1 | ~2
